Square brackets hold non-standard residues; d marks the D form. Peptide text beside a SMILES is read from it. Tic = O=C(O)[C@@H]1Cc2ccccc2CN1
Biological target: Dipeptidyl peptidase 4 (Homo sapiens, UniProt P27487)
Assay: Percent inhibition against Dipeptidyl peptidase IV (DPP IV) at a concentration of 1 uM

Sequence of Dipeptidyl peptidase 4 (P27487 whole entry, looked up): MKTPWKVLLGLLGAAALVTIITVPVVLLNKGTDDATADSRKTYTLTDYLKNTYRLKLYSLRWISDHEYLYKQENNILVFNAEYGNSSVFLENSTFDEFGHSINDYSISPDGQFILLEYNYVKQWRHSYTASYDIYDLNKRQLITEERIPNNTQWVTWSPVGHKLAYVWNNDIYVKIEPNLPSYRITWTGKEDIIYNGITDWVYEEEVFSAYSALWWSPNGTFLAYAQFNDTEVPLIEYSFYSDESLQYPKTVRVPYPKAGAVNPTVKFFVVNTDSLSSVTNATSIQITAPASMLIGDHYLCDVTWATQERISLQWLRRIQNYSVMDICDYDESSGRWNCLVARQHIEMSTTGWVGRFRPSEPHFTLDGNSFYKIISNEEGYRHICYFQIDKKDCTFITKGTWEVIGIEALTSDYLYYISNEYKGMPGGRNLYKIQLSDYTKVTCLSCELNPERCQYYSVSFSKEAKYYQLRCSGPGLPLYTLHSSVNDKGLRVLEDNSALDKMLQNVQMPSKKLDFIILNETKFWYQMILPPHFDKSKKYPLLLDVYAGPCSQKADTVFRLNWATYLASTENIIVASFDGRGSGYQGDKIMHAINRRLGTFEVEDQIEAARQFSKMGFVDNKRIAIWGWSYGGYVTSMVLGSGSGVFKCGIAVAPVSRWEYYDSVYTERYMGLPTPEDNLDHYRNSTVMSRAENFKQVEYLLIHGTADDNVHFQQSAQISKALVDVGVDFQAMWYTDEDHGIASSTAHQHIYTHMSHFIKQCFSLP

Compound | inhibition [%]
CC[C@H](C)[C@H](NC(=O)[C@H](Cc1c[nH]cn1)NC(=O)CNC(=O)[C@H](CCC(=O)O)NC(=O)[C@H](CCC(N)=O)NC(=O)[C@H](CC(=O)O)NC(=O)[C@H](CC(N)=O)NC(=O)[C@H](CCCN=C(N)N)NC(=O)[C@H](C)NC(=O)[C@@H]1Cc2ccccc2CN1C(=O)[C@@H](N)[C@@H](C)O)C(=O)N[C@@H](CC(C)C)C(=O)N[C@@H](CCCCN)C(=O)N[C@@H](CCSC)C(=O)N[C@@H](Cc1ccccc1)C(=O)N1CCC[C@H]1C(=O)N[C@@H](CO)C(=O)N[C@H](C(=O)N[C@@H](Cc1c[nH]c2ccccc12)C(=O)N[C@@H](Cc1ccc(O)cc1)C(=O)N[C@H](C(=O)O)C(C)C)[C@@H](C)O (H-T[Tic]ARNDQEGHILKMFPSTWYV-OH) | 17
CC[C@H](C)[C@H](NC(=O)[C@H](Cc1c[nH]cn1)NC(=O)CNC(=O)[C@H](CCC(=O)O)NC(=O)[C@H](CCC(N)=O)NC(=O)[C@H](CC(=O)O)NC(=O)[C@H](CC(N)=O)NC(=O)[C@H](CCCN=C(N)N)NC(=O)[C@H](C)NC(=O)[C@@H]1Cc2ccccc2CN1C(=O)[C@@H](N)C(C)C)C(=O)N[C@@H](CC(C)C)C(=O)N[C@@H](CCCCN)C(=O)N[C@@H](CCSC)C(=O)N[C@@H](Cc1ccccc1)C(=O)N1CCC[C@H]1C(=O)N[C@@H](CO)C(=O)N[C@H](C(=O)N[C@@H](Cc1c[nH]c2ccccc12)C(=O)N[C@@H](Cc1ccc(O)cc1)C(=O)N[C@H](C(=O)O)C(C)C)[C@@H](C)O (H-V[Tic]ARNDQEGHILKMFPSTWYV-OH) | 3
CC[C@H](C)[C@H](NC(=O)[C@H](Cc1c[nH]cn1)NC(=O)CNC(=O)[C@H](CCC(=O)O)NC(=O)[C@H](CCC(N)=O)NC(=O)[C@H](CC(=O)O)NC(=O)[C@H](CC(N)=O)NC(=O)[C@H](CCCN=C(N)N)NC(=O)[C@H](C)NC(=O)[C@@H]1Cc2ccccc2CN1C(=O)[C@@H](N)CCCN=C(N)N)C(=O)N[C@@H](CC(C)C)C(=O)N[C@@H](CCCCN)C(=O)N[C@@H](CCSC)C(=O)N[C@@H](Cc1ccccc1)C(=O)N1CCC[C@H]1C(=O)N[C@@H](CO)C(=O)N[C@H](C(=O)N[C@@H](Cc1c[nH]c2ccccc12)C(=O)N[C@@H](Cc1ccc(O)cc1)C(=O)N[C@H](C(=O)O)C(C)C)[C@@H](C)O (H-R[Tic]ARNDQEGHILKMFPSTWYV-OH) | 10
CC[C@H](C)[C@H](NC(=O)[C@H](Cc1c[nH]cn1)NC(=O)CNC(=O)[C@H](CCC(=O)O)NC(=O)[C@H](CCC(N)=O)NC(=O)[C@H](CC(=O)O)NC(=O)[C@H](CC(N)=O)NC(=O)[C@H](CCCN=C(N)N)NC(=O)[C@H](C)NC(=O)[C@@H]1Cc2ccccc2CN1C(=O)[C@@H](N)CC(C)C)C(=O)N[C@@H](CC(C)C)C(=O)N[C@@H](CCCCN)C(=O)N[C@@H](CCSC)C(=O)N[C@@H](Cc1ccccc1)C(=O)N1CCC[C@H]1C(=O)N[C@@H](CO)C(=O)N[C@H](C(=O)N[C@@H](Cc1c[nH]c2ccccc12)C(=O)N[C@@H](Cc1ccc(O)cc1)C(=O)N[C@H](C(=O)O)C(C)C)[C@@H](C)O (H-L[Tic]ARNDQEGHILKMFPSTWYV-OH) | 7

Other lines, results leading:

inhibition [%] | Compound
9 | CC[C@H](C)[C@H](NC(=O)[C@H](Cc1c[nH]cn1)NC(=O)CNC(=O)[C@H](CCC(=O)O)NC(=O)[C@H](CCC(N)=O)NC(=O)[C@H](CC(=O)O)NC(=O)[C@H](CC(N)=O)NC(=O)[C@H](CCCN=C(N)N)NC(=O)[C@H](C)NC(=O)[C@@H]1Cc2ccccc2CN1C(=O)[C@@H](N)CS)C(=O)N[C@@H](CC(C)C)C(=O)N[C@@H](CCCCN)C(=O)N[C@@H](CCSC)C(=O)N[C@@H](Cc1ccccc1)C(=O)N1CCC[C@H]1C(=O)N[C@@H](CO)C(=O)N[C@H](C(=O)N[C@@H](Cc1c[nH]c2ccccc12)C(=O)N[C@@H](Cc1ccc(O)cc1)C(=O)N[C@H](C(=O)O)C(C)C)[C@@H](C)O (H-C[Tic]ARNDQEGHILKMFPSTWYV-OH)
4 | CC[C@H](C)[C@H](NC(=O)[C@H](Cc1c[nH]cn1)NC(=O)CNC(=O)[C@H](CCC(=O)O)NC(=O)[C@H](CCC(N)=O)NC(=O)[C@H](CC(=O)O)NC(=O)[C@H](CC(N)=O)NC(=O)[C@H](CCCN=C(N)N)NC(=O)[C@H](C)NC(=O)[C@@H]1Cc2ccccc2CN1C(=O)[C@@H](N)CCC(N)=O)C(=O)N[C@@H](CC(C)C)C(=O)N[C@@H](CCCCN)C(=O)N[C@@H](CCSC)C(=O)N[C@@H](Cc1ccccc1)C(=O)N1CCC[C@H]1C(=O)N[C@@H](CO)C(=O)N[C@H](C(=O)N[C@@H](Cc1c[nH]c2ccccc12)C(=O)N[C@@H](Cc1ccc(O)cc1)C(=O)N[C@H](C(=O)O)C(C)C)[C@@H](C)O (H-Q[Tic]ARNDQEGHILKMFPSTWYV-OH)
1 | CC[C@H](C)[C@H](NC(=O)[C@H](Cc1c[nH]cn1)NC(=O)CNC(=O)[C@H](CCC(=O)O)NC(=O)[C@H](CCC(N)=O)NC(=O)[C@H](CC(=O)O)NC(=O)[C@H](CC(N)=O)NC(=O)[C@H](CCCN=C(N)N)NC(=O)[C@H](C)NC(=O)[C@@H]1Cc2ccccc2CN1C(=O)[C@H](C)N)C(=O)N[C@@H](CC(C)C)C(=O)N[C@@H](CCCCN)C(=O)N[C@@H](CCSC)C(=O)N[C@@H](Cc1ccccc1)C(=O)N1CCC[C@H]1C(=O)N[C@@H](CO)C(=O)N[C@H](C(=O)N[C@@H](Cc1c[nH]c2ccccc12)C(=O)N[C@@H](Cc1ccc(O)cc1)C(=O)N[C@H](C(=O)O)C(C)C)[C@@H](C)O (H-A[Tic]ARNDQEGHILKMFPSTWYV-OH)
7 | CC[C@H](C)[C@H](NC(=O)[C@H](Cc1c[nH]cn1)NC(=O)CNC(=O)[C@H](CCC(=O)O)NC(=O)[C@H](CCC(N)=O)NC(=O)[C@H](CC(=O)O)NC(=O)[C@H](CC(N)=O)NC(=O)[C@H](CCCN=C(N)N)NC(=O)[C@H](C)NC(=O)[C@@H]1Cc2ccccc2CN1C(=O)[C@@H](N)CCCCN)C(=O)N[C@@H](CC(C)C)C(=O)N[C@@H](CCCCN)C(=O)N[C@@H](CCSC)C(=O)N[C@@H](Cc1ccccc1)C(=O)N1CCC[C@H]1C(=O)N[C@@H](CO)C(=O)N[C@H](C(=O)N[C@@H](Cc1c[nH]c2ccccc12)C(=O)N[C@@H](Cc1ccc(O)cc1)C(=O)N[C@H](C(=O)O)C(C)C)[C@@H](C)O (H-K[Tic]ARNDQEGHILKMFPSTWYV-OH)
6 | CC[C@H](C)[C@H](NC(=O)[C@H](Cc1c[nH]cn1)NC(=O)CNC(=O)[C@H](CCC(=O)O)NC(=O)[C@H](CCC(N)=O)NC(=O)[C@H](CC(=O)O)NC(=O)[C@H](CC(N)=O)NC(=O)[C@H](CCCN=C(N)N)NC(=O)[C@H](C)NC(=O)[C@@H]1Cc2ccccc2CN1C(=O)[C@@H](N)CCSC)C(=O)N[C@@H](CC(C)C)C(=O)N[C@@H](CCCCN)C(=O)N[C@@H](CCSC)C(=O)N[C@@H](Cc1ccccc1)C(=O)N1CCC[C@H]1C(=O)N[C@@H](CO)C(=O)N[C@H](C(=O)N[C@@H](Cc1c[nH]c2ccccc12)C(=O)N[C@@H](Cc1ccc(O)cc1)C(=O)N[C@H](C(=O)O)C(C)C)[C@@H](C)O (H-M[Tic]ARNDQEGHILKMFPSTWYV-OH)
10 | CC[C@H](C)[C@H](NC(=O)[C@H](Cc1c[nH]cn1)NC(=O)CNC(=O)[C@H](CCC(=O)O)NC(=O)[C@H](CCC(N)=O)NC(=O)[C@H](CC(=O)O)NC(=O)[C@H](CC(N)=O)NC(=O)[C@H](CCCN=C(N)N)NC(=O)[C@H](C)NC(=O)[C@@H]1Cc2ccccc2CN1C(=O)[C@@H](N)CO)C(=O)N[C@@H](CC(C)C)C(=O)N[C@@H](CCCCN)C(=O)N[C@@H](CCSC)C(=O)N[C@@H](Cc1ccccc1)C(=O)N1CCC[C@H]1C(=O)N[C@@H](CO)C(=O)N[C@H](C(=O)N[C@@H](Cc1c[nH]c2ccccc12)C(=O)N[C@@H](Cc1ccc(O)cc1)C(=O)N[C@H](C(=O)O)C(C)C)[C@@H](C)O (H-S[Tic]ARNDQEGHILKMFPSTWYV-OH)

From ChEMBL document CHEMBL1131542, “A potent dipeptide inhibitor of dipeptidyl peptidase IV” (Bioorg Med Chem Lett, 1998)
